This is an account of results in patent publication US10266545B2, “Coumarin derivative as antiviral agent, pharmaceutical composition thereof, its preparation and use” (I-NOVA MEDICINSKA ISTRAZIVANJA D.O.O., priority 2016, dated 2019).

Molecules are shown by their SMILES. A value given as a limit tells only on which side of the number the result lay.

The test has as its system replication of HIV-1 in the infected MT-4 cells (endogenous RT). As to the kind of experiment: Endogenous RT activity in culture fluid of HIV-1 infected MT-4 cells (HS-Lenti RT activity kit). In kind it is cell-based, HIV-1 subtype B. The conditions noted are these: for inhibition at 0.1 µM: 0.0001 mM; for inhibition at 5 µM: 0.005 mM; for inhibition at 10 µM: 0.01 mM. The method, then:
Furthermore, antiviral activity of compound 1 was studied on reverse transcriptase (RT) activity to elucidate potential mechanism of its antiviral action. This was done by using MT-4 cell line which […] with HIV-1. Source of HIV-1 culture fluid was chronically infected and producing HIV-1 subtype B cell line H9/HTLV III B.
Reverse transcriptase (RT) activity was determined: • (a) in the culture fluid of infected HIV-1 MT-4 cells at 72 hours after their infection (viral control); • (b) in the culture fluid of non-infected with HIV-1 cells at 72 hours and culturing without the addition of any substance (cell control); and • (c) in the culture fluid infected with HIV-1 MT-4 cells at 72 hours after infecting them, in which the desired concentration of the test compound 1 or the control compound 2 to the growth medium was added.
RT activity was determined according to the instructions of the producer. Separately was reported RT activity of standard recombinant reverse transcriptase (rRT), available in every kit. It was prepared 12-fold dilutions of the standard rRT. The manufacturer provides data on the amount of rRT in pg/well and pg/ml for each 12-fold dilution. The method used represents colorimetric method for non-radioactive determination of RT activity. It includes two stages: • (1) the synthesis of reverse transcript at the 3- or 24-hours incubation at 33° C. (which was determined experimentally); and • (2) quantitative determination of the resulting product.
In the synthesis of DNA using bromine deoxyuridine triphosphate (Brd UTP), which enter into the composition of the reaction mixture. It is included in the structure of the matrix/primer making up the DNA chain. Determination of incorporated Brd UTP was done by tracer-antibody Brd UTP, conjugated to the enzyme alkaline phosphatase. Followed colorimetrically determining the absorbance at A405 nm, which is proportional to the RT activity in the sample. According to the manufacturer, RT activity was considered positive when A405 values for the sample exceeded at least 2 times the values of A405 for negative control. Otherwise the sample was reported as such lacking RT activity, i.e. negative. The test was done by comparing the RT activity in the virus controls (100%) reported with viral RT activity in the wells treated with the test substance in the different concentrations in strict absence of RT activity in control cells. Percent inhibition of replication using the RT test was expressed as the difference between 100% (positive viral control without inhibitor) and % reported RT activity in the wells treated with the inhibitor (compounds 1 or 2) at various concentrations.
The measurement of RT activity is a widespread method for the quantitative determination of retroviruses replication. In the experimental set-up, primarily endogenous activity in supernatants was measured, i.e. in the culture fluid of virus infected cells and treated/untreated with inhibitor at 72 hours after cultivation.
For the control, commonly used substance with proven antiviral activity was employed; in our case, we used Kivexa, which contains 600 mg Abacavir and 300 mg of Lamivudine, which is applied in clinical practice as nucleoside inhibitor of RT. In the presence of RT inhibition in the test, it is concluded that not only the replication of the virus is inhibited, but also probably the target of the inhibitory effect is RT itself. To confirm this conclusion, it is necessary that percentage (%) of inhibition of the RT coincides with the % inhibition in the microtiter MTT assay. […] Reaction mixture supplemented with inhibitor was prepared at desired concentration for the assay, and then, to the mixture, recombinant RT was added with a known activity and concentration. After incubation, we determined whether the activity of the enzyme shall be amended (inhibited) by action of the compounds 1 or 2. […]

Setting [1] is: Human immunodeficiency virus 1, MT4, endogenous RT in culture liquid.

Regarding `O=c1oc2cc(O)cc(O)c2c(O)c1-c1coc2c1c(=O)oc1cc(O)cc(O)c12` [Compound 1, 7,9-dihydroxy-3-(4,5,7-trihydroxy-2-oxo-2H-chromene-3-yl)-4H-furo[3,2-c]chromen-4-one], testing at 0.001 µM (Human immunodeficiency virus 1, MT4, endogenous RT in culture liquid, 0.000001 mM) gave an inhibition of 1.3%. Further, the inhibition at 0.01 µM (Human immunodeficiency virus 1, MT4, endogenous RT in culture liquid, 0.00001 mM) came to 50.7%. Under setting [1], this compound displayed an inhibition at 0.1 µM of 55%, an inhibition at 5 µM of 76.6% and an inhibition at 10 µM of 89%. Besides, the “inhibition of HIV-1 infectivity in MT-4 cells” value (Table 4) is > 89%.
Regarding `O=c1oc2cc(O)c(O)cc2c(O)c1-c1coc2c1c(=O)oc1cc(O)c(O)cc12` [Compound 2, 7,8-dihydroxy-3-(4,6,7-trihydroxy-2-oxo-2H-chromen-3-yl)-4H-furo[3,2-c]chromen-4-one, reference compound], under setting [1], testing at 0.1 µM gave an inhibition of 0%, the inhibition at 5 µM turned out to be 51% and the inhibition at 10 µM is 56.3%. Also, the inhibition at 1 µM (Human immunodeficiency virus 1, MT4, endogenous RT in culture liquid, 0.001 mM) was determined as 25.7%.
